Data: PMC7693658, “SaUspA, the Universal Stress Protein of Sulfolobus acidocaldarius Stimulates the Activity of the PP2A Phosphatase and Is Involved in Growth at High Salinity” (Frontiers in Microbiology, 2020)

T1: ArnC (Sulfolobus acidocaldarius, UniProt Q4J9J0)
T1 construct: gene Saci_1193; purified kinase; expression in E. coli Rosetta (DE3)/pLysS, construct details in earlier work
T1 sequence (Q4J9J0 1-663): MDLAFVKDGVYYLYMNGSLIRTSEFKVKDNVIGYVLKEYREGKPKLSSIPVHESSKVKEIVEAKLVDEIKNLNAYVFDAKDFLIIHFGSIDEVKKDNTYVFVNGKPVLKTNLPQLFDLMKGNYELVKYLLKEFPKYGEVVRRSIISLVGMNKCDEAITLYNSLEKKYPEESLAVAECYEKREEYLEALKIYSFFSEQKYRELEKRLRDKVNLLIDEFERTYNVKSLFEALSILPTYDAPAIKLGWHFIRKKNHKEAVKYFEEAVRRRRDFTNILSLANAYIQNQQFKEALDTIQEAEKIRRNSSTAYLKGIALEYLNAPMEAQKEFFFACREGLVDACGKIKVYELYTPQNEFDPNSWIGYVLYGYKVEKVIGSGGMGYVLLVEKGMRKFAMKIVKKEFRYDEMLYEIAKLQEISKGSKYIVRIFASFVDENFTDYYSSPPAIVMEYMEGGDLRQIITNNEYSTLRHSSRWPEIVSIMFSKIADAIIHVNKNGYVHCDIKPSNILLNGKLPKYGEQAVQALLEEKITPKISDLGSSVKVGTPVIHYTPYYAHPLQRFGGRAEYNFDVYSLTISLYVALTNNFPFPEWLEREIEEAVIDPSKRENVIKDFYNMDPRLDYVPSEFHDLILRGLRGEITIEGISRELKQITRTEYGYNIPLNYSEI

T2: ArnD (Sulfolobus acidocaldarius, UniProt Q4J879)
T2 construct: gene Saci_1694; purified kinase; expression in E. coli Rosetta (DE3)/pLysS, construct details in earlier work
T2 sequence (Q4J879 1-413): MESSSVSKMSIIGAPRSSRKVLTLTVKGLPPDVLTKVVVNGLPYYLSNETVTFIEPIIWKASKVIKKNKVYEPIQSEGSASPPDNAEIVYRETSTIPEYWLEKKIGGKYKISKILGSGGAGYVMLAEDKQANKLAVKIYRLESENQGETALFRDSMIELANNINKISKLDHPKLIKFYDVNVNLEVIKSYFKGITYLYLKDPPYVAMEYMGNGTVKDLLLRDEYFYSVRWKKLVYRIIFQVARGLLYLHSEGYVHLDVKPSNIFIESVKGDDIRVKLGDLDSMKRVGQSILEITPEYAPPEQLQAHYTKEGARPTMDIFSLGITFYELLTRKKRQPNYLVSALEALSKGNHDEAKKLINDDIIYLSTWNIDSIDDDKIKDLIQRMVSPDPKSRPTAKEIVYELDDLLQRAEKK

T3: SaUspA (Sulfolobus acidocaldarius, UniProt Q4JAC8)
T3 construct: gene Saci_0887
T3 sequence (Q4JAC8 1-128): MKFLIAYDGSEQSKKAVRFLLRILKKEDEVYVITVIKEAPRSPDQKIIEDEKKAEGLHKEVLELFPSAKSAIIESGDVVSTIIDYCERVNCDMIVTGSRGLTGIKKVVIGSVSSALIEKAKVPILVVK

B1: C-terminally StrepII-tagged SaUspA (universal stress protein UspA of Sulfolobus acidocaldarius, Saci_0887) (natural protein, UniProt Q4JAC8 1-128, looked up)
chain: T3 sequence (Q4JAC8 1-128)
notes: SaUspA (UspA, Saci_0887), universal stress protein of Sulfolobus acidocaldarius; printed molecular weight 16.2 kDa; Made nucleotide free by ammonium sulfate precipitation; in some samples pre-incubated with 1 mM ATP and 5 mM MgCl2; also called SaUspA-Strep; SaUspA^WT; not shown: StrepII, C-terminal, kept

Tests used:
ArnC = target: T1, ArnC; test: in vitro phosphorylation, autophosphorylation; format: biochemical; settings: 1 mM MnCl2, pH 8, 55°C; labelled compound
ArnD = target: T2, ArnD; test: in vitro phosphorylation, autophosphorylation; format: biochemical; settings: 1 mM MnCl2, pH 8, 55°C; labelled compound
SaUspA = target: T3, SaUspA; test: Ni-NTA co-purification with PP2A-his, Western blot; settings: 1 mM ATP, 5 mM MgCl2, pH 8; ATP increases binding to PP2A
[1] = target: the molecule itself; test: SEC; purified Strep II-tagged SaUspA on a Superdex 200 10/300 GL column in lysis buffer (50 mM Tris pH8, 150 mM NaCl); standards of 158, 44, 17 and 1.35 kDa; peak at about 30 kDa against 16.2 kDa for the monomer

Molecule	in vitro phosphorylation, autophosphorylation (ArnC)	in vitro phosphorylation, autophosphorylation (ArnD)	Ni-NTA co-purification with PP2A-his, Western blot (SaUspA)	stoichiometry N [1]
Nc1ncnc2c1ncn2[C@@H]1O[C@H](COP(=O)(O)OP(=O)(O)OP(=O)(O)O)[C@@H](O)[C@H]1O [ATP]	autophosphorylation was detected for both ArnC and ArnD	autophosphorylation was detected for both ArnC and ArnD	This indicated that ATP-binding of SaUspA enhanced its interaction with PP2A	
B1				2
